Experimental data reported in patent US20200147116A1, “Use of Paeoniflorin-6'-O-benzenesulfonate in treatment of Sjögren's syndrome” (NINGBO ZHIMING BIOTECHNOLOGY CO., LTD., priority 2017, published 2020).
Marks after values point to notes of the source that are not given here.

Experiments:
Assay type in all cases: in vivo
[1] = system: SS mice; experiment: Organic indexes (spleen, submaxillary gland, thymus) in SS mice
Text: 2 Sjögren's syndrome model mice: C57BL/6 female mice housed in a SPF environment with successful modeling (The animal model was made via repeated multi-point intracutaneous injection of submaxillary gland homogenate of homologous mice to tail and back of mice). The animal model was made via repeated multi-point intracutaneously injection of submaxillary gland homogenate of homologous mice to tail and back of mice, and the mice with successful modeling were randomly assigned to each group according to comprehensive conditions of mice. At the same time, the average weight and status of each group of mice should be as close as possible. Paeoniflorin-6′-O-benzenesulfonate, white crystalline powder, purity 98.5%, was dissolved in trace ethanol (75 mg of CP-25 was soluble in 40 μl of ethanol), and then sodium carboxymethylcellulose was added to formulate a suspension of CP-25. Corresponding dose gradient, low dose (17.5 mg/kg), medium dose (35 mg/kg) and high dose (70 mg/kg) of said pharmaceutical should be prepared before medication, stored in 4° C. refrigerator for use. High dose of said pharmaceutical should be incubated for half an hour before use.

[2] = system: submaxillary gland in SS mice; experiment: Histopathological examination and grading of submaxillary gland in SS mice (H&E, Chisholm-Mason scale); details: for Score: mice with submaxillary gland pathology Grade 0 / Score: mice with submaxillary gland pathology Grade I / Score: mice with submaxillary gland pathology Grade II / Score: mice with submaxillary gland pathology Grade III / Score: mice with submaxillary gland pathology Grade IV: two weeks of administration, four mice of each group
Protocol: (§1) Mice were sacrificed after two weeks of administration, and then submaxillary glands of four mice of each group were removed and pathologically observed. At first, the submaxillary gland should be fixed in 10% buffered formalin for 24 h, followed by washing, dehydration and clearing, wax-filling, embedding, sectioning and finally H&E staining. […] Results were graded pathologically.
(§2) Note: The histological findings graded of submaxillary glands according to the Chisholm-Mason scale; grade 0, absence of lymphocytic infiltration; grade I, slight lymphocytic infiltration; grade II, moderate lymphocytic infiltration; grade III, one focus of lymphocytic infiltration per 4 mm^2 tissue; grade IV, more than one focus of lymphocytic infiltration per 4 mm^2 tissue (Note: One focus of lymphocytic infiltration has been defined as an aggregate of 50 or more lymphocytes gathered in the labial gland stroma per 4 mm^2 of tissue.

[3] = system: Sjögren's syndrome model mice; experiment: Water intake in Sjögren's syndrome model mice; details: therapeutic mice, after a week of administration; model control always tends to rise
Protocol: In this invention, low dose (17.5 mg/kg), medium dose (35 mg/kg) and high dose (70 mg/kg) of CP-25 were respectively administrated by gavage to each of randomly assigned group of Sjögren's syndrome model mice for two weeks. Water intake, saliva amount and submaxillary gland pathological analysis and score were determined respectively, on the day before administration, the 7th day and 14th day after administration. The therapeutic effects of CP-25 on Sjögren's syndrome were evaluated by comparison of changes of each index before and after treatment.
However, the water intake in mice of model control group always tends to rise.

[4] = system: spleen B lymphocyte; experiment: Spleen B lymphocyte proliferation in SS model mice (FIG. 3)
Text: FIG. 3 Effects of CP-25 on spleen B lymphocyte proliferation in SS model mice.

[5] = system: spleen CD11c+ CD80+ DC; experiment: Spleen CD11c+ CD80+ DC in SS model mice (FIG. 8)
Text: FIG. 8 Effects of CP-25 on spleen CD11c^+ CD80^+ DC in SS model mice.

[6] = system: spleen CD11c+ MHC-II+ DC; experiment: Spleen CD11c+ MHC-II+ DC in SS model mice (FIG. 9)
Text: FIG. 9 Effects of CP-25 on spleen CD11c^+ MHC-II^+ DC in SS model mice.

[7] = system: NOD mice; experiment: Saliva amount in NOD mice; details: for Saliva amount in NOD mice, Pre-administration: baseline before administration
Protocol: Before measurement, mice were anesthetized via intraperitoneal injection of 0.05 ml of 2.4% pentobarbital sodium, and the satisfactory anesthesia was smooth breathing, corneal reflex disappearance and limb muscle relaxation. After complete anesthesia, a mouse was placed in slightly tilted trendelenburg position, and its body was kept warm using the heater. The mouse was injected intraperitoneally with 0.1 ml of 0.025 mg/ml Pilocarpine, and 5 min later, a weighed cotton ball was placed in the mouth of the mouse for 10 min. After taking the ball out, the saliva weight of mice was measured by the wet weight method.
Therapeutic effects of on Sjögren's syndrome CP-25 in NOD mice.

[8] = system: NOD model mice; experiment: Organic indexes (spleen, submaxillary gland, thymus) in NOD model mice
[9] = system: submaxillary glands in NOD mice; experiment: Pathological grading of submaxillary glands in NOD mice; details: for Score: mice with submaxillary gland pathology Grade 0 / Score: mice with submaxillary gland pathology Grade I / Score: mice with submaxillary gland pathology Grade II / Score: mice with submaxillary gland pathology Grade III / Score: mice with submaxillary gland pathology Grade IV: NOD mice
Protocol: as §1, §2

[10] = system: spleen T lymphocytes; experiment: Spleen T lymphocyte proliferation in NOD model mice (FIG. 12A)
Text: FIG. 12 Effects of CP-25 on spleen T and B lymphocyte proliferation in NOD model mice.
A: T lymphocytes; B: B lymphocytes

C[C@@]12C[C@@]3(O)O[C@H](O1)C1(COC(=O)c4ccccc4)[C@@H]3CC12OC1OC(COS(=O)(=O)c2ccccc2)C(O)C(O)C1O (stereo partly drawn) [CP-25, Paeoniflorin-6′-O-benzenesulfonate]
Spleen index ([1]; 17.5 mg/kg): 9.00 ± 1.61 mg/g
Submaxillary gland index ([1]; 17.5 mg/kg): 3.56 ± 0.62 mg/g
Thymus index ([1]; 17.5 mg/kg): 1.06 ± 0.31 mg/g
Spleen index ([1]; 35 mg/kg): 8.92 ± 1.33 mg/g
Submaxillary gland index ([1]; 35 mg/kg): 3.32 ± 0.66 mg/g
Thymus index ([1]; 35 mg/kg): 1.31 ± 0.42 mg/g
Spleen index ([1]; 70 mg/kg): 8.51 ± 1.42 mg/g
Submaxillary gland index ([1]; 70 mg/kg): 3.24 ± 0.57 mg/g
Thymus index ([1]; 70 mg/kg): 1.03 ± 0.44 mg/g
Increasing of submaxillary gland index (in words) ([1]; Example 2): significantly suppress the increasing
Score: mice with submaxillary gland pathology Grade 0 ([2]; 17.5 mg/kg): 0
Score: mice with submaxillary gland pathology Grade I ([2]; 17.5 mg/kg): 0
Score: mice with submaxillary gland pathology Grade II ([2]; 17.5 mg/kg): 0
Score: mice with submaxillary gland pathology Grade III ([2]; 17.5 mg/kg): 1
Score: mice with submaxillary gland pathology Grade IV ([2]; 17.5 mg/kg): 3
Score: mice with submaxillary gland pathology Grade 0 ([2]; 35 mg/kg): 0
Score: mice with submaxillary gland pathology Grade I ([2]; 35 mg/kg): 0
Score: mice with submaxillary gland pathology Grade II ([2]; 35 mg/kg): 0
Score: mice with submaxillary gland pathology Grade III ([2]; 35 mg/kg): 1
Score: mice with submaxillary gland pathology Grade IV ([2]; 35 mg/kg): 3
Score: mice with submaxillary gland pathology Grade 0 ([2]; 70 mg/kg): 0
Score: mice with submaxillary gland pathology Grade I ([2]; 70 mg/kg): 0
Score: mice with submaxillary gland pathology Grade II ([2]; 70 mg/kg): 0
Score: mice with submaxillary gland pathology Grade III ([2]; 70 mg/kg): 3
Score: mice with submaxillary gland pathology Grade IV ([2]; 70 mg/kg): 1^#
Pathological changes in submaxillary gland ([2]; Example 3, dose not given): apparently ameliorate the pathological changes
Pathological changes in submaxillary glands (H&E staining score, rank-sum test) ([2]; high dose of CP-25): apparently ameliorate the pathological changes
Water intake [3]: begins to drop off
Spleen B lymphocyte proliferation [4]: significantly inhibit
Expression of surface molecular CD80+ on spleen CD11c+ DC [5]: significantly inhibit
Expression of surface molecular MHC-II+ on spleen CD11c+ DC [6]: significantly inhibit
Saliva amount in NOD mice, One week after administration ([7]; 17.5 mg/kg): 15.20 ± 1.04 mg/each mouse/10 min
Saliva amount in NOD mice, Two weeks after administration ([7]; 17.5 mg/kg): 14.25 ± 1.46 mg/each mouse/10 min
Saliva amount in NOD mice, One week after administration ([7]; 35 mg/kg): 15.60 ± 1.50 mg/each mouse/10 min
Saliva amount in NOD mice, Two weeks after administration ([7]; 35 mg/kg): 15.25 ± 1.36 mg/each mouse/10 min
Saliva amount in NOD mice, One week after administration ([7]; 70 mg/kg): 18.20 ± 1.58^#Δ mg/each mouse/10 min
Saliva amount in NOD mice, Two weeks after administration ([7]; 70 mg/kg): 18.25 ± 1.50 mg/each mouse/10 min
Saliva amount in NOD mice, Pre-administration ([7]; dose group 17.5 mg/kg): 19.50 ± 1.38 mg/each mouse/10 min
Saliva amount in NOD mice, Pre-administration ([7]; dose group 35 mg/kg): 19.33 ± 3.20 mg/each mouse/10 min
Saliva amount in NOD mice, Pre-administration ([7]; dose group 70 mg/kg): 19.51 ± 1.87 mg/each mouse/10 min
Saliva amount (in words) ([7]; NOD model mice, Example 4): significantly increase
Onset time of curative effects versus comparators ([7]; NOD model mice, Example 4, saliva amount): earlier than that of TGP, or Pae
Spleen index ([8]; 17.5 mg/kg): 9.5 ± 4.2 mg/g
Submaxillary gland index ([8]; 17.5 mg/kg): 4.5 ± 0.8^ mg/g
Thymus index ([8]; 17.5 mg/kg): 1.3 ± 0.7 mg/g
Spleen index ([8]; 35 mg/kg): 4.2 ± 0.6 mg/g
Submaxillary gland index ([8]; 35 mg/kg): 4.3 ± 0.6 mg/g
Thymus index ([8]; 35 mg/kg): 1.1 ± 0.6 mg/g
Spleen index ([8]; 70 mg/kg): 4.3 ± 0.7 mg/g
Submaxillary gland index ([8]; 70 mg/kg): 4.2 ± 0.6 mg/g
Thymus index ([8]; 70 mg/kg): 1.4 ± 0.5 mg/g
Increasing of submaxillary gland index (in words) ([8]; Example 5): significantly suppress the increasing
Score: mice with submaxillary gland pathology Grade 0 ([9]; 17.5 mg/kg): 0
Score: mice with submaxillary gland pathology Grade I ([9]; 17.5 mg/kg): 0
Score: mice with submaxillary gland pathology Grade II ([9]; 17.5 mg/kg): 0
Score: mice with submaxillary gland pathology Grade III ([9]; 17.5 mg/kg): 1
Score: mice with submaxillary gland pathology Grade IV ([9]; 17.5 mg/kg): 3
Score: mice with submaxillary gland pathology Grade 0 ([9]; 35 mg/kg): 0
Score: mice with submaxillary gland pathology Grade I ([9]; 35 mg/kg): 0
Score: mice with submaxillary gland pathology Grade II ([9]; 35 mg/kg): 0
Score: mice with submaxillary gland pathology Grade III ([9]; 35 mg/kg): 1
Score: mice with submaxillary gland pathology Grade IV ([9]; 35 mg/kg): 3
Score: mice with submaxillary gland pathology Grade 0 ([9]; 70 mg/kg): 0
Score: mice with submaxillary gland pathology Grade I ([9]; 70 mg/kg): 0
Score: mice with submaxillary gland pathology Grade II ([9]; 70 mg/kg): 0
Score: mice with submaxillary gland pathology Grade III ([9]; 70 mg/kg): 3
Score: mice with submaxillary gland pathology Grade IV ([9]; 70 mg/kg): 1 ^#
Pathological changes in submaxillary gland ([9]; NOD model mice, Example 6): apparently ameliorate the pathological changes
Spleen T lymphocyte proliferation [10]: significantly inhibit
